Data published in patent US8901276B2, “Peptide reagents and methods for detection of colon dysplasia” (The Regents of the University of Michigan, priority 2010, dated 2014).

Tests used:
Hs738.St/Int. cells [1] = assay: Fluorescence microscopy of FITC-labeled peptides; assay type: cell-based, human; details: 10 μM, 15 min
Experimental: Preferential binding of the FITC-Peptide 2 and FITC-Control peptide 2 to target and non-target cells was also validated via fluorescence microscopy. HT29 and Hs738.St/Int. cells were grown in 22 mm2 cover slips with ˜80% confluence. Blocking of non-specific binding was performed by adding PBS/0.5% BSA for 30 min. The cells were then incubated with 10 μM of FITC-Peptide 2 or FITC-Control peptide 2 either at 4 or 37° C. for 15 min followed by 1 μg/mL Hoechst dye (Sigma Aldrich, St. Louis, Mo.) along with the peptide. The cells were washed with PBS for 3 times and fixed with 4% paraformaldehyde at room temperature for 10 min. After fixation, the cells were washed again with PBS (1×) and mounted with ProLong® Gold reagent (Invitrogen, Carlsbad, Calif.) and the fluorescence images were acquired with Leica Confocal system. (Leica Microsystems GMBH, Wetzlar, 35578 Germany)
Preferential binding of the FITC-labeled candidate and control peptides to the target and non-target cells was further validated via fluorescence microscopy. HT29 and Hs738.St/Int. cells were grown on cover slips to ˜80% confluence. Blocking of non-specific binding was performed by adding PBS/0.5% BSA for 30 min. The cells were then incubated with 10 μM of 5-FITC-labeled candidate or control peptide at either 4 or 37° C. for 15 min followed by staining with 1 μg/mL Hoechst dye (Sigma Aldrich, St. Louis, Mo.) along with the peptide. The cells were washed 3× with PBS and fixed with 4% paraformaldehyde at RT for 10 min. After fixation, the cells were washed again with PBS and mounted with ProLong Gold reagent (Invitrogen, Carlsbad, Calif.) and fluorescence images were collected with confocal microscopy (Leica TCS SP5 Microsystems, Bannockburn, Ill.).

HT29 cells = assay: Flow cytometry of FITC-labeled peptides; assay type: cell-based, human; details: 10 μM, 60 min, 4° C., FITC channel
Experimental: (§1) Preferential binding of FITC-Peptide 2 to target cells was validated using flow cytometry. HT29 and Hs738.St/Int. (˜2×10^5) cells were grown, detached, and blocked as described above. These cells were incubated with the FITC-Peptide 2 or -Control peptide 2 (10 μM) for 60 min at 4° C. with continuous agitation. The cells were then washed (3×) with cold PBST followed by immediate fixing for 10 min. with 4% paraformaldehyde. The cells were washed again (1×) with PBS and resuspended in 1 mL of PBS. Flow cytometry was performed using FACSDiVa (BD® LSRII, BD Biosciences, San Jose, Calif.) and analyzed using Flowjo analysis program (Tree Star Inc., Ashland, Oreg.).
(§2) Preferential binding of the candidate peptide labeled with 5-FITC to the target and control cells was also validated using flow cytometry. HT29 and Hs738.St/Int. (˜2×10^5) cells were grown, detached, and blocked, as described above. These cells were incubated with the 5-FITC labeled candidate or control peptide (10 μM) for 60 min at 4° C. with continuous agitation. The cells were then washed 3× with cold PBST followed by immediate fixation for 10 min with 4% paraformaldehyde. The cells were washed again with PBS and resuspended in 1 mL of PBS. Flow cytometry was performed using FACSDiVa (BD® LSRII, BD Biosciences, San Jose, Calif.) and analyzed using Flowjo analysis program (Tree Star Inc. Ashland, Oreg.).

Hs738.St/Int. cells [2] = assay: Flow cytometry of FITC-labeled peptides; assay type: cell-based, human; details: 10 μM, 60 min, 4° C.
Experimental: as §1, §2

[3] = system: human colonic mucosa sections (normal, dysplasia, adenocarcinoma); assay: Peptide immunohistochemistry on frozen sections (Example 11); details: for target-to-background (T/B) ratio KCCFPAQ peptide vs. control peptide: frozen sections; for fluorescence intensity on immunohistochemistry: mean±SEM
Experimental: All specimens were obtained with approval from the University of Michigan Institutional Review Board (IRB). Freshly resected specimens of human colonic mucosa were frozen in OCT and sectioned with 10 μm thickness. The sections were then air dried, washed with PBS, and incubated with the FITC-labeled peptides at a concentration of 10 μM for 15 min at RT. The sections were washed 3× for 1 min in PBS and fixed with 4% paraformaldehyde for 10 min. After fixation, the sections were washed again and mounted with ProLong Gold reagent with DAPI (Invitrogen, Carlsbad, Calif.). The sections were imaged under a confocal microscope (Leica TCS SP5 Microsystems, Bannockburn, Ill.). Adjacent sections were sent for routine histology. The intensity for each image was calculated using Matlab (Mathworks, Natick, Mass.).

[4] = system: human EMR specimens (normal mucosa, polypoid and non-polypoid dysplasia); assay: Stereomicroscopic validation on EMR specimens; details: for fluorescence intensity on stereomicroscopy: 10 μmol/L, 5 min, mean±SEM
Text: Binding of the candidate or control peptide to the dysplasia on freshly resected human specimens via endoscopic mucosal resection (EMR) was validated on fluorescence stereomicroscopy. Patients with previously diagnosed polypoid and non-polypoid dysplasia who were referred for EMR were recruited. Institutional review board approval was obtained from the VA Palo Alto Health Care System, and informed consent was acquired. After resection, the specimens were rinsed in PBS 3× to remove debris and mucous. An autofluorescence image was acquired before incubating with the peptide. Then, specimens were incubated with either the FITC-labeled candidate or control peptide at a concentration of 10 μmol/L for 5 min. The unbound peptide was rinsed off with PBS 3×. The mucosal surface of the specimen was oriented face up, and a dab of ink was applied to the upper border as a landmark to register the white light and fluorescence images with histology. A white light image was collected from the specimen with and without an overlying transparent grid that contains squares with dimensions of 1×1 mm^2. Fluorescence images were collected at 500 milliseconds per frame (with the overlying grid removed) using a stereomicroscope (Olympus SZX-16 equipped with Rolera camera; Olympus Corp, Tokyo, Japan) using 477 to 500 nm excitation and 500 to 630 nm emission. A correction to the fluorescence images was performed because the intensity at the center of the image is greater than that in the periphery due to differences in distance. A fluorescence image was collected from a solution of 10 μM FITC in a plate to provide a uniform target for calibration, allowing for quantitative analysis over the entire field of view. After the fluorescence intensities were corrected, lines along the length of the specimen spaced by 2-mm intervals in each image were identified using the grid from the white light image. The mean intensity from each 1×1 mm^2 interval along this length of tissue was calculated using Matlab and compared with histology. Histopathologic interpretation was performed by a gastrointestinal pathologist (HA) who classified the specimens stained with H&E as normal colonic mucosa, dysplasia, or adenocarcinoma. The histopathologic evaluation of the EMR specimens was conducted at VA Palo Alto Health Care System (AM) and classified as either dysplasia or normal mucosa.

## KCCFPAQ-FITC [FITC-Peptide 2, KCCFPAQ with FITC at the C-terminus on the side chain of lysine residue via GGGSK linker]
Hs738.St/Int. cells [1]
  binding to Hs738.St/Int. cells on microscopy: not the surface of the Hs738.St/Int cells
Hs738.St/Int. cells [1]; listed as KCCFPAQ peptide
  binding to Hs738.St/Int. cells on microscopy: No binding
HT29 cells
  total HT29 cell population bound: About 97%
HT29 cells; listed as KCCFPAQ peptide
  total HT29 cell population bound: 97%
Hs738.St/Int. cells [2]
  binding to Hs738.St/Int. cells on flow cytometry: bound minimally
[3]
  binding to adenocarcinoma compared to normal mucosa: 3.1 times
  binding to adenocarcinoma relative to dysplasia: 1.5 fold
[3]; 10 μM, 15 min, RT
  binding to normal colonic mucosa: no binding
  staining of dysplasia and adenocarcinoma: consistently stains
[3]; adenocarcinoma
  target-to-background (T/B) ratio KCCFPAQ peptide vs. control peptide: 3.6
  fluorescence intensity on immunohistochemistry: 31.5±6.0 AU
[3]; dysplasia
  target-to-background (T/B) ratio KCCFPAQ peptide vs. control peptide: 3.1
  fluorescence intensity on immunohistochemistry: 21.1±3.8 AU
[3]; normal mucosa
  target-to-background (T/B) ratio KCCFPAQ peptide vs. control peptide: 2.0
  fluorescence intensity on immunohistochemistry: 10.1±3.6 AU
[4]
  T/B flat adenoma to adjacent normal mucosa: ~2.0 fold
  T/B polypoid adenoma to adjacent normal mucosa: 1.8
[4]; non-polypoid dysplasia
  fluorescence intensity on stereomicroscopy: 85.1±19.2 AU
[4]; normal mucosa
  fluorescence intensity on stereomicroscopy: 43.5±10.7 AU
[4]; polypoid dysplasia
  fluorescence intensity on stereomicroscopy: 78.6±12.8 AU
